How the values were obtained:
A375 xenograft = A375 xenograft mouse model, tumor growth; format: in vivo
MOLM13 xenograft = MOLM13 xenograft mouse model, tumor growth; format: in vivo; settings: 10 mg/kg PO, qw
Method: (§1) A. Real-time PCR analysis of different human leukemia cell lines under HSP90 inhibitor treatment. Human leukemia cells were cultured and treated or untreated with AUY922 for 48 h. Then, total mRNA was collected and Real-time PCR was performed. B. Cell apoptosis analysis of MLL1 low expression or MLL1 high expression human leukemia cells with AUY922 treatment. Human leukemia cells were treated or untreated with AUY922 100 nM for 48 h. The apoptotic cells represented by 7AAD+AnnexinV+ were determined by FACS. C. The effect of HSP90 inhibitor in SEM and MOLM13 xenograft mouse model. Tumor growth rate of SEM and MOLM13 under HSP990 treatment were compared at different time points. […] SEM and MOLM13 cells were treated or untreated with AUY922 100 nM for 3 h. Total RNA were collected and microarray was performed.
(§2) Mice were maintained and handled in accordance with Novartis Biomedical Research Animal Care and Use Committee protocols and regulations. A375 with Tet-inducible shRNA against MLL1 were cultured in DMEM supplemented with 10% Tet-approved FBS. Mice (6-8 wk old, n=8) were inoculated s.c. with 1×10^6 cells in the right dorsal axillary region. Tumor volume was measured by calipering in two dimensions and calculated as (length×width2)/2. […] Data were expressed as mean±SEM, and differences were considered statistically significant at P<0.05 by Student t test.

SEM xenograft = SEM xenograft mouse model, tumor growth; format: in vivo; settings: 10 mg/kg PO, qw
Method: as §1, §2

A375, A2058 and HCT116 = assay: Cell colony formation assay with MLL1 knockdown; format: cell-based, human; settings: Doxycycline 5 days, compound 6 days
Method: A. Cell colony formation assay of MLL1 knockdown with AUY922 treatment in A375 cells. 5000 shNTC or shMLL1 A375 cells were seeded in six wells plate and were treated or untreated with Doxycycline for 5 days, then followed by compound treatment for 6 days. B. Cell colony formation assay of MLL1 knockdown with AUY922 treatment in A2058 cells. 5000 shNTC or shMLL1 A2058 cells were seeded in six wells plate and were treated or untreated with Doxycycline for 5 days, then followed by compound treatment for 6 days. C. Western blotting analysis of tumor samples. Tumor samples were collected at the end of studies and western blotting analysis of MLL1 and GAPDH were performed. D. Real-time PCR analysis of tumor samples. Tumor samples were collected at the end of studies and total mRNA was collected and Real-time PCR was performed. E. The combinational effect of MLL1 knockdown and HSP90 inhibitor in A375 xenograft mouse model. Tumor growth rate of A375 cells expressing inducible control shRNA or shRNA against MLL1 under Doxycycline and/or HSP990 were compared at different time points. […] The percentage of S+G2M cells were determined by PI staining. […] The apoptotic cells represented by 7AAD+AnnexinV+ were determined by FACS. […] Relative cell growth was measured by CTG. […] The apoptotic cells represented by 7AAD+AnnexinV+ were determined by FACS. […]

[1] = system: binding of HSF1 to HSP70 or BAG3 promoter; assay: ChIP with HSF1 antibody, quantitative real-time PCR; format: cell-based, human; settings: A375 cells, AUY922 100 nM, one hour
Method: shHSF1 transduced A375 cells were treated with or without Doxycycline for 3 days and were further treated with AUY922 100 nM for 1 h. Chromatin was immunoprecipitated with anti-MLL1 antibody and amplified by quantitative real-time PCR using primers around HSE element of HSP70 (A) or BAG3 (B) gene promoter and MLL1 binding site of MESI1 (C) promoter.
To examine the recruitment of MLL1 to the HSF1-modulated gene promoter, we performed chromatin immunoprecipitation (ChIP) with A375 cells transduced with control or shMLL1 and treated or untreated with AUY922 for 1 h. Chromatin from those cells was sonicated to obtain fragments below 500 bp and immunoprecipitated using polyclonal against HSF1 and MLL1. Quantitative real-time PCR analysis was carried out with primer specific for the HSP70 and BAG3 encompassing the HSE element. MLL1 binding site of MESI1 was used as a control. […] In contrast, the bindings were not detected in A375 cells with inducible HSF1 knockdown (Supplement FIG. 3). A significant of MLL1 occupancy of the HSP70 and BAG3 gene promoter is also observed at one hour of AUY922 treatment (FIGS. 2C and D). In contrast, the binding of MLL1 to MESI promoter was not detected (FIG. 2E). […]

human primary BALL cells = assay: Dose response in human primary BALL cells (CellTiter-Glo); format: cell-based; settings: 48 h
Method: A. The percentage of human leukemia cells in bone marrow of recipient mice transplanted with human primary leukemia cells. The human cells represented by human CD45+ were determined by FACS. B. Real-time PCR analysis of MLL1 expression among different human primary leukemia cell. C. Dose response of AUY922 in human primary BALL cells. Human primary BALL cells were treated with DMSO or serial dilutions of AUY922 for 48 h. Relative cell growth was measured by CellTiter-Glo. D. JURKAT, SEM, RS(4,11) and MOLM13 were treated for 72 h with different doses of AUY922 and/or NVP-JAE067, inhibition of cell viability was measured using the CellTiter-Glo assay. E. Chalice software was used to calculate excess inhibition over Loewe additivity for each AUY922 and NVP-JAE067 dose combination.
To investigate whether MLL1 expression is different in primary human cancer cells, we examined the expression of MLL1 in human B acute lymphoblastic leukemia samples. The primary human BALL cells were transplanted into immune deficient mice and bone marrow cells were collected from recipient mice until blood tumor burden is higher than 70% by FACS analysis. […] We next evaluated the efficacy of AUY922 on those human leukemia cells. […] We next tested the combination effect of AUY922 and DOT1L inhibitor NVP-JAE067 on human leukemia cells. […] Taken together, those result indicated human leukemia cells with MLL1 low expression may be more sensitive to HSP90 inhibition and the combination of HSP90 inhibitor and DOT1L inhibitor may be a good strategy for human leukemia cells harboring MLL1 translocation.

MLL1−/− MEFs [2] = assay: Microscopic analysis and dose response (CTG) in MEFs; format: cell-based, mouse; settings: after 48 h treatment
Method: (§3) A. Cell colony formation assay of MLL1 knockdown with AUY922 treatment in A375 cells. 5000 shNTC or shMLL1 A375 cells were seeded in six wells plate and were treated or untreated with Doxycycline for 5 days, then followed by compound treatment for 6 days. B. Cell colony formation assay of MLL1 knockdown with AUY922 treatment in A2058 cells. 5000 shNTC or shMLL1 A2058 cells were seeded in six wells plate and were treated or untreated with Doxycycline for 5 days, then followed by compound treatment for 6 days. C. Western blotting analysis of tumor samples. Tumor samples were collected at the end of studies and western blotting analysis of MLL1 and GAPDH were performed. D. Real-time PCR analysis of tumor samples. Tumor samples were collected at the end of studies and total mRNA was collected and Real-time PCR was performed. E. The combinational effect of MLL1 knockdown and HSP90 inhibitor in A375 xenograft mouse model. Tumor growth rate of A375 cells expressing inducible control shRNA or shRNA against MLL1 under Doxycycline and/or HSP990 were compared at different time points. […] The percentage of S+G2M cells were determined by PI staining. […] The apoptotic cells represented by 7AAD+AnnexinV+ were determined by FACS. […] Relative cell growth was measured by CTG. […] The apoptotic cells represented by 7AAD+AnnexinV+ were determined by FACS.

MLL1+/+ MEFs [3] = assay: as above; format: cell-based, mouse
Method: as §3

[4] = system: other leukemia cell lines; assay: Cell proliferation by CellTiter-Glo, human leukemia cells; format: cell-based; settings: 72 h
Method: (§4) Eight human leukemia cells with or without MLL1 translocation were treated with AUY922 for 72 h and cell proliferation rate were measured by CellTiter-Glo. IC95 were used to estimate the cell response to HSP90 inhibition. Supplementary Table. S1: 35 Genes were Identified as Modulators of Cell Response to HSP90 Inhibition by siRNA Screening

NOMO = assay: as above; format: cell-based; settings: 72 h
Method: as §4

MOLM13 = assay: as above; format: cell-based; settings: MOLM13, 72 h
Method: as §4

RS(4,11) = assay: as above; format: cell-based; settings: 72 h
Method: as §4

MLL1−/− MEFs [5] = assay: Cell apoptosis analysis (7AAD+AnnexinV+, FACS) in MEFs; format: cell-based, mouse; settings: AUY922 100 nM, 48 h
Method: as §3

MLL1+/+ MEFs [6] = assay: as above; format: cell-based, mouse; settings: AUY922 100 nM, 48 h
Method: as §3

A375 cells = assay: Cell colony formation assay with MLL1 knockdown, NVP-LGX818; format: cell-based, human; settings: shMLL1
Method: Supplementary FIG. 5: Cell colony formation assay of HSF1 knockdown or MLL1 knockdown with NVP-LGX818 treatment in A375 cells 5000 shNTC, shHSF1 or shMLL1 A375 cells were seeded in six wells plate and were treated or untreated with Doxycycline for 5 days, then followed by compound treatment for 6 days.

COc1cccc(-c2cc(F)ccc2[C@H]2Cc3nc(N)nc(C)c3C(=O)N2)n1 [HSP990, (R)-2-amino-7-[4-fluoro-2-(6-methyoxy-pyridin-2-yl)-phenyl]-4-methyl-7,8-dihydro-6H-pyrido[4,3-d]pyrimidin-5-one]
tumor growth outcome (A375 xenograft; HSF1 knockdown & HSP990 combination): tumor stasis | inhibited tumor growth, T/C (A375 xenograft; HSP990 alone, 10 mg/kg PO, qw): 50 % T/C | inhibited tumor growth, T/C (MOLM13 xenograft): 60 % T/C | inhibited tumor growth, T/C (SEM xenograft): 30 % T/C

CCNC(=O)c1noc(-c2cc(C(C)C)c(O)cc2O)c1-c1ccc(CN2CCOCC2)cc1 [AUY922, 5-(2,4-Dihydroxy-5-isopropyl-phenyl)-4-(4-morpholin-4-ylmethyl-phenyl)-isoxazole-3-carboxylic acid ethylamide]
sensitivity in colony formation on induction of MLL1 shRNA (A375, A2058 and HCT116): dramatically sensitivity | binding of HSF1 to HSP70 or BAG3 promoter (ChIP) [1]: increased about ten times | response to treatment (relative cell growth) (human primary BALL cells; P1 leukemia cells with high MLL1 expression): didn't response | response to treatment (relative cell growth) (human primary BALL cells; P4 leukemia cells with low MLL1 expression): good response | response to treatment (relative cell growth) (human primary BALL cells; other two human leukemia samples): a certain response | cells killed (MLL1−/− MEFs [2]): more than 90% | effect on proliferation / killing of cells (MLL1+/+ MEFs [3]): inhibits the proliferation rate of MEFs, but didn't kill those cells | IC95 [4]: about 1000 nM | IC95 (NOMO): about 100 nM | IC95 (MOLM13): about 100 nM | IC95 (RS(4,11)): about 100 nM | cells induced apoptosis (MLL1−/− MEFs [5]): more than 80% | cells induced apoptosis (MLL1+/+ MEFs [6]): 30%

COC(=O)N[C@@H](C)CNc1nccc(-c2cn(C(C)C)nc2-c2cc(Cl)cc(NS(C)(=O)=O)c2F)n1 [NVP-LGX818]
combinational effect with MLL1 knockdown, colony formation (A375 cells): does not have a combinational effect
